Data published in the supplement of paper PMC10307832.

Key:
Experiment in all cases: relative viability (nuclei count vs DMSO), 5 days (fraction); higher = more cells survive
[1] = compound: O=C(O)C(Cc1ccccc1[N+](=O)[O-])=NNc1nc(-c2ccc(Cl)c(Cl)c2)cs1 (mixture of isomers) [4EGI-1] + CC(=O)Nc1cccc(-n2c(=O)n(C3CC3)c(=O)c3c(Nc4ccc(I)cc4F)n(C)c(=O)c(C)c32)c1 [Trametinib] (partner 0.02 µM)
In short: (§1)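 Dosing by pin tool came one day after lung cancer cell lines were seeded in 1536-well plates, using either one drug or a fixed anchor-drug dose plus five library-drug doses (not always all listed) in √10 steps. After 5 days, nuclei were counted on 4× images. Relative viability is treated-well nuclei count divided by vehicle-well nuclei count, and values are medians of duplicate plates.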

[2] = compound: CN1CCN(CC1)C2=CC(=C(C=C2)NC3=NC=C4C(=N3)N(C5=CC=CC=C5C(=O)N4C)C)OC [XMD8-85] + CC(C)C[C@H](NC(=O)[C@H](Cc1ccccc1)NC(=O)c1cnccn1)B(O)O [Bortezomib] (partner 0.002 µM)
In short: as §1

[3] = compound: CN1CCN(CC1)C2=CC(=C(C=C2)NC3=NC=C4C(=N3)N(C5=CC=CC=C5C(=O)N4C)C)OC [XMD8-85] + Cc1nc(Nc2ncc(C(=O)Nc3c(C)cccc3Cl)s2)cc(N2CCN(CCO)CC2)n1 [Dasatinib] (partner 0.075 µM)
In short: as §1

[4] = compound: O=C(O)C(Cc1ccccc1[N+](=O)[O-])=NNc1nc(-c2ccc(Cl)c(Cl)c2)cs1 (mixture of isomers) [4EGI-1] + COc1cc2c(Oc3ccc(NC(=O)C4(C(=O)Nc5ccc(F)cc5)CC4)cc3F)ccnc2cc1OCCCN1CCOCC1 [Foretinib] (partner 0.25 µM)
In short: as §1

Cell Line	relative viability ([1]; first compound 0.5 µM)	relative viability ([1]; first compound 5 µM)	relative viability ([1]; first compound 15.81 µM)	relative viability ([1]; first compound 50 µM)	relative viability ([2]; first compound 0.08 µM)	relative viability ([2]; first compound 0.253 µM)	relative viability ([2]; first compound 0.8 µM)	relative viability ([2]; first compound 2.53 µM)	relative viability ([2]; first compound 8 µM)	relative viability ([3]; first compound 0.08 µM)	relative viability ([3]; first compound 0.253 µM)	relative viability ([3]; first compound 0.8 µM)	relative viability ([3]; first compound 2.53 µM)	relative viability ([3]; first compound 8 µM)	relative viability ([4]; first compound 0.5 µM)	relative viability ([4]; first compound 5 µM)	relative viability ([4]; first compound 15.81 µM)	relative viability ([4]; first compound 50 µM)	relative viability ([1]; first compound 1.581 µM)	relative viability ([4]; first compound 1.581 µM)
LOU-NH91	0.812	0.764	0.704	0.724	0.448	0.466	0.488	0.489	0.4	0.553	0.555	0.573	0.571	0.459	0.944	0.995	0.545	0.906	–	–
LU99A	0.516	0.583	0.538	0.307	1.11	1.21	1.18	1.23	1	0.477	0.675	0.61	0.688	0.388	0.817	0.856	0.616	0.551	0.436	0.605
LXF-289	0.716	0.61	0.622	0.583	0.977	0.999	0.97	1.04	0.978	0.214	0.23	0.208	0.243	0.2	0.992	1	0.943	0.771	0.669	0.944
NCI-H23	0.351	0.422	0.369	0.187	0.977	0.836	1.09	1.21	0.853	0.719	0.853	0.885	0.751	0.528	1.04	1.1	0.933	0.638	–	–
NCI-H322M	0.525	0.476	0.514	0.452	1.36	1.22	1.3	1.46	1.04	0.246	0.249	0.289	0.232	0.19	1.03	1.13	0.816	0.342	–	–
NCI-H441	0.613	0.449	0.428	0.127	0.509	0.442	0.392	0.581	0.367	0.42	0.576	0.728	0.715	0.516	0.909	1.01	0.882	0.447	0.471	0.929
NCI-H460	0.245	0.109	0.133	0.018	0.924	0.999	1.2	0.956	0.75	0.423	0.443	0.554	0.475	0.178	1.02	0.997	0.686	0.228	0.0821	–
NCI-H520	0.947	0.749	0.724	0.145	0.491	0.51	0.772	0.507	0.205	0.199	0.208	0.182	0.216	0.159	0.89	0.937	0.875	0.638	0.83	0.812
NCI-H596	1.09	0.918	0.661	0.545	0.838	0.903	1.22	1.09	0.899	0.599	0.541	0.553	0.556	0.545	0.856	0.796	0.757	0.75	0.83	0.644
NCI-H647	0.585	0.475	0.384	0.129	1.15	0.778	1.13	0.924	0.515	0.197	0.141	0.16	0.196	0.122	1.44	1.18	1.24	0.66	0.493	–
NCI-H650	1.07	1.02	0.984	0.833	0.778	0.855	0.854	0.858	0.27	0.446	0.51	0.437	0.418	0.304	1.13	1	0.958	0.897	–	–
NCI-H661	0.653	0.572	0.439	0.29	0.732	0.927	–	0.802	0.728	0.81	0.888	0.856	0.834	0.455	0.999	0.994	0.714	0.313	0.524	0.94
NCI-H727	0.365	0.377	0.386	0.376	0.64	0.727	1.34	1.3	0.452	0.295	0.416	0.442	0.344	0.353	1.07	0.767	1.19	0.324	0.398	1.07
NCI-H838	0.694	0.512	0.506	0.141	0.714	0.696	1.02	0.892	0.489	0.397	0.277	0.281	0.28	0.191	1.03	1.13	1.04	0.369	0.483	–
NCI-H1355	0.47	0.372	0.319	0.33	1.28	1.26	1.13	1.21	1.11	0.671	0.753	0.653	0.819	–	0.932	0.962	0.851	0.738	0.428	0.87
NCI-H1437	0.608	0.549	0.337	0.207	0.497	0.443	0.438	0.541	0.378	0.372	0.364	0.398	0.394	0.282	1.25	1.24	1.04	0.521	0.537	1.12

Cell Line	relative viability ([1]; first compound 0.5 µM)	relative viability ([1]; first compound 5 µM)	relative viability ([1]; first compound 15.81 µM)	relative viability ([1]; first compound 50 µM)	relative viability ([2]; first compound 0.08 µM)	relative viability ([2]; first compound 0.253 µM)	relative viability ([2]; first compound 0.8 µM)	relative viability ([2]; first compound 2.53 µM)	relative viability ([2]; first compound 8 µM)	relative viability ([3]; first compound 0.08 µM)	relative viability ([3]; first compound 0.253 µM)	relative viability ([3]; first compound 0.8 µM)	relative viability ([3]; first compound 2.53 µM)	relative viability ([3]; first compound 8 µM)	relative viability ([4]; first compound 0.5 µM)	relative viability ([4]; first compound 5 µM)	relative viability ([4]; first compound 15.81 µM)	relative viability ([4]; first compound 50 µM)	relative viability ([1]; first compound 1.581 µM)	relative viability ([4]; first compound 1.581 µM)
NCI-H1650	0.658	0.643	0.275	0.182	0.26	0.197	0.192	0.173	0.179	0.34	0.313	0.365	0.271	0.192	1.37	1.04	0.749	0.405	–	–
NCI-H1651	0.914	0.863	0.796	0.831	1.08	0.946	0.882	0.903	0.875	0.46	0.334	0.511	0.387	0.307	0.893	0.818	0.729	0.784	0.775	0.608
NCI-H1666	0.914	0.811	0.774	0.66	0.831	0.754	0.745	0.735	–	0.822	0.827	0.808	0.773	0.701	1.01	1.04	0.671	0.417	0.822	0.924
NCI-H1734	0.73	0.684	0.761	0.483	0.808	0.936	0.917	1.03	0.649	0.463	0.491	0.453	0.574	0.499	1.02	0.971	0.827	0.472	0.521	0.803
NCI-H1755	0.773	0.711	0.72	0.556	0.97	1.14	0.918	1.06	0.806	0.409	0.432	0.434	0.482	0.353	0.953	0.872	0.815	0.704	0.802	0.854
NCI-H1915	0.367	0.308	0.289	0.245	0.67	0.923	0.942	0.986	0.945	0.328	0.339	0.348	0.326	0.32	1.13	1.08	1.07	0.928	0.234	0.858
NCI-H1975	0.341	0.325	0.289	0.212	0.443	0.36	0.378	0.297	0.222	0.317	0.345	0.384	0.38	0.236	0.932	1.01	0.844	0.729	0.32	0.814
NCI-H1993	0.654	0.504	0.607	0.432	0.965	0.958	1.08	1.29	1.07	0.522	0.518	0.648	0.744	0.744	0.812	0.708	0.684	0.614	0.49	0.7
NCI-H2009	0.339	0.306	0.24	0.139	0.98	0.931	1.16	0.988	0.352	0.285	0.29	0.288	0.209	0.167	1.28	1.27	1.23	0.981	0.28	1.29
NCI-H2023	0.865	0.593	0.214	0.0814	0.881	0.992	1.07	1.13	0.575	0.426	0.521	0.586	0.619	0.314	0.88	0.772	0.45	0.149	–	–
NCI-H2085	0.553	0.53	0.355	0.364	0.92	1.03	1.18	0.95	–	0.275	0.265	0.235	0.203	0.197	0.826	1.07	0.814	0.541	0.594	1.02
NCI-H2087	0.212	0.234	0.2	0.126	0.827	0.869	–	1.11	0.729	0.953	0.802	0.959	0.79	0.472	1.23	1.39	0.855	0.29	0.2	1.09
NCI-H2126	0.552	0.506	0.463	0.384	1.04	1.13	1.18	1.15	1.12	0.601	0.625	0.613	0.562	0.417	1.34	1.28	1.07	0.785	0.553	1.55
NCI-H2228	0.496	0.575	0.456	0.197	1.15	0.872	0.924	1.04	0.582	0.451	0.514	0.516	0.398	0.231	0.906	0.938	0.882	0.166	0.499	0.878
NCI-H2347	0.304	0.309	0.298	0.302	1.2	1.09	0.824	0.921	0.407	0.304	0.332	0.289	0.313	0.489	0.989	1.11	0.806	0.933	0.27	0.835
NCI-H2405	0.856	0.703	0.771	0.482	1.01	0.983	0.975	1.02	0.927	0.206	0.206	0.221	0.198	0.177	1.06	1.13	1.13	1.02	–	1
